These results are taken from ChEMBL document CHEMBL1135859, “Indinavir analogues with blocked metabolism sites as HIV protease inhibitors with improved pharmacological profiles and high potency against PI-resistant viral strains” (Bioorg Med Chem Lett, 2002).

The test system of one data set is MT4. The data set is described as follows: Concentration required to inhibit the spread of viral infection in MT-4 human T-lymphoid cells infected by the NL4-3 virus. The class given is functional. The note with it: read-out: CIC95.
The target of data set [1] is T1, Human immunodeficiency virus type 1 protease (Human immunodeficiency virus 1, UniProt Q72874). The data set is described as follows: Inhibitory concentration required to inhibit cleavage of a substrate by the wild-type HIV-1 Protease.
The test system of data set [2] is Human immunodeficiency virus 1. The data set is described as follows: Concentration required to control the spread of HIV mutant strain 4X virus. The class given is functional. The note with it: read-out: CIC95.
The subject of data set [3] is Human immunodeficiency virus 1. The data set is described as follows: Concentration required to control the spread of HIV mutant strain Q-60C. The class given is functional. The note with it: read-out: CIC95.
Data set [4] has as its system Human immunodeficiency virus 1. The data set is described as follows: Concentration required to control the spread of HIV mutant strain V-18C. The note with it: read-out: CIC95. The class given is functional.
Data set [5] is described as follows: Area under curve was determined. The note with it: dog, in vivo. The class given is ADME, organism-based, Canis lupus familiaris.
Data set [6] is described as follows: Half life was determined. The class given is ADME, organism-based, Canis lupus familiaris. The note with it: dog, in vivo.
Data set [7] deals with Human immunodeficiency virus 1. The data set is described as follows: Concentration required to control the spread of HIV mutant strain K-60C. The class given is functional. The note with it: read-out: CIC95.
The nature of data set [8]: Bioavailability. The class given is ADME, organism-based, Canis lupus familiaris. The note with it: dog, in vivo.
Data set [9] relates to Human immunodeficiency virus 1. The data set is described as follows: (§1) Concentration required to control the spread of HIV mutant strain WT. The note with it: Human immunodeficiency virus 1, read-out: CIC95.
Data set [10] has as its target T1, Human immunodeficiency virus type 1 protease. The data set is described as follows: Inhibitory concentration required to inhibit cleavage of a substrate by the wild-type HIV-1 protease enzyme.
Data set [11] in a line: Area under curve in dogs. The class given is ADME, organism-based, Canis lupus familiaris. The note with it: dog, in vivo.
In data set [12] the test system is Human immunodeficiency virus 1. The data set is described as §1. The class given is functional. The note with it: read-out: CIC95.
The nature of data set [13]: Maximum concentration was determined. The note with it: dog, in vivo. The class given is ADME, organism-based, Canis lupus familiaris.
Data set [14] in a line: Half life in dogs. The note with it: dog, in vivo. The class given is ADME, organism-based, Canis lupus familiaris.
Data set [15] can be described thus: Bioavailability in dog. The note with it: in vivo. The class given is ADME, organism-based, Canis lupus familiaris.

For the compound `CC(C)(C)NC(=O)[C@@H]1CN(C(C)(C)c2cccnc2)CCN1C[C@@H](O)C[C@@H](Cc1ccccc1)C(=O)N[C@H]1c2ccccc2C[C@H]1O`, the IC95 with MT4 stood at 50 nM. This compound also yielded an IC50 in data set [1] of 1.16 nM.
In the case of `CC(C)(C)NC(=O)[C@@H]1CN(Cc2cccnc2)CCN1C[C@@H](O)C[C@@H](Cc1ccccc1)C(=O)N[C@H]1c2ccccc2C[C@H]1O.O` [INDINAVIR], the IC95 was 500 nM in [2]; greater than 1000 nM in [3]; 50 nM in the data set with MT4; 1500 nM in data set [4]; greater than 3000 nM in [7]; 50.5 nM in data set [9]. In data set [5], this compound displayed an AUC of 12.5 µM·h. The same compound returned a half-life in [6] of 38 min. The compound further yielded a bioavailability in [8] of 71.6%.
With `CC(C)(C)NC(=O)[C@@H]1CN(C(C)(C)c2cc3cnccc3o2)CCN1C[C@@H](O)C[C@@H](Cc1ccccc1)C(=O)N[C@H]1c2ccccc2OC[C@H]1O`, the IC95 in [2] is 31 nM; in data set [3], 250 nM; in the data set on MT4, less than 8 nM; in data set [4], 250 nM; in data set [7], 500 nM; in data set [12], less than 8 nM. In addition, the IC50 in data set [10] came to 0.075 nM. The compound also displayed an AUC in [11] of 7.43 µM·h. This compound also displayed a Cmax in data set [13] of 8.85 µM. The half-life in data set [14] was 62.4 min. The same compound showed a bioavailability in [15] of 81%.
Consider `CC(C)(C)NC(=O)[C@@H]1CN(C(C)(C)c2cc3cnccc3o2)CCN1C[C@@H](O)C[C@@H](Cc1ccccc1)C(=O)N[C@H]1c2ccccc2C[C@H]1O`, for which the IC95 in [2] was 625 nM; in [3] it was greater than 1000 nM; in the data set with MT4 it was 15 nM; in data set [4] it was greater than 1000 nM; in data set [7], greater than 1000 nM; in data set [12], 15 nM. In data set [11], the AUC was found to be 14.1 µM·h. For the same compound, in data set [1], the IC50 was 0.15 nM. The Cmax in data set [13] amounted to 16.6 µM. In [14], this compound yielded a half-life of 47 min. In addition, in [15], the bioavailability amounted to 44.3%.
With `CC(C)(C)NC(=O)[C@@H]1CN(Cc2cc3cnccc3o2)CCN1C[C@@H](O)C[C@@H](Cc1ccccc1)C(=O)N[C@H]1c2ccccc2C[C@H]1O`, the IC95 in the data set on MT4 stood at 15 nM. Besides, the IC50 in data set [1] was found to be 0.23 nM.

In general, IC50 refers to the concentration needed to halve the response being measured. Low values mean inhibition by little substance, high ones a need for much substance. As usually defined, the AUC is the area under the concentration-time curve, a measure of exposure. Low values mean low exposure, high ones high exposure. What is called half-life is how long it takes for the measured level to halve. The low end stands for rapid decline, the high end for slow decline. Broadly, the bioavailability is the share of a dose that reaches the circulation, judged against a reference dose that is usually intravenous. A word on the Cmax: it is the maximum level reached in the sampled fluid or tissue.
